Test results taken from patent US12577217B2, “15-PGDH inhibitor” (KYORIN Pharmaceutical Co., Ltd., priority 2019, dated 2026).

Target: T1, recombinant human 15-PGDH (Homo sapiens, UniProt P15428)
T1 construct: purchased R&D Systems
T1 sequence (P15428 1-266): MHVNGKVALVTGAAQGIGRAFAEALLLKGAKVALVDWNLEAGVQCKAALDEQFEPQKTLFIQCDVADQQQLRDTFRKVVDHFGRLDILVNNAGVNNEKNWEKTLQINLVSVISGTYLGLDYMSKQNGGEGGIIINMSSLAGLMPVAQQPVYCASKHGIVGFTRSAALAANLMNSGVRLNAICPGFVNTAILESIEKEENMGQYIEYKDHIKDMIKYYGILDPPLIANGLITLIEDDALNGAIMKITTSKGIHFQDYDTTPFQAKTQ
Experiment: 15-PGDH enzyme inhibition test
Type: biochemical
Details: 4 nM recombinant human 15-PGDH, 30 μM PGE2, 1 mM NAD+, 60 minutes after starting the reaction; read-out: IC50 Value
Procedure, shortened: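 4 nM recombinant human enzyme pre-incubated with compound 12 min at room temperature in 50 mM Tris-HCl pH 8.0 with 0.01% Tween 20 and 0.01% bovine gamma globulin. Reaction started with 30 μM PGE2 and 1 mM NAD+, read after 60 min by fluorescence (ex 340/em 440 nm). IC50 from concentration-response curve.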

Compound | IC50 [nM]
CN(C)C(=O)c1ccc(N2CCCc3cc(C(=O)N4CCCCC4)cnc32)cc1 [Example 6-15] | 10 to 100
CNC(=O)C1CCC(N2CCOc3cc(C(=O)N4CCCCC4)ccc32)CC1 (stereo not shown) [Example 6-16] | 10 to 100
NC(=O)c1ccc(N2CCOc3cc(C(=O)N4CCCCC4)cnc32)cc1 [Example 6-17] | < 10
CNC(=O)c1ccc(N2CCOc3cc(C(=O)N4CCCCC4)cnc32)cc1 [Example 6-18] | < 10
CN(C)C(=O)c1ccc(N2CCOc3cc(C(=O)N4CCCCC4)cnc32)cc1 [Example 6-19] | < 10
CC(C)(C(N)=O)c1ccc(N2CCOc3cc(C(=O)N4CCCCC4)cnc32)cc1 [Example 6-20] | > 100
NC(=O)c1ccc(N2CCOc3cc(C(=O)N4CCCCC4)cnc32)cn1 [Example 6-21] | < 10
CNC(=O)c1ccc(N2CCOc3cc(C(=O)N4CCCCC4)cnc32)cn1 [Example 6-22] | < 10
Cn1nc2cc(N3CCOc4cc([S+]([O-])C5CCCCC5)cnc43)ccn2c1=O (stereo not shown) [Example 7-5] | < 10
Cn1nc2cc(N3CCOc4cc(S(=O)(=O)C5CCCCC5)cnc43)ccn2c1=O [Example 7-6] | > 100
Cn1nc2cc(N3CCCc4cc([S+]([O-])C5CCCCC5)cnc43)ccn2c1=O (stereo not shown) [Example 7-7] | < 10
Cn1nc2cc(N3CCCc4cc(S(=O)(=O)C5CCCCC5)cnc43)ccn2c1=O [Example 7-8] | > 100
CN1Cc2cc(N3CCOc4cc([S+]([O-])C5CCCCC5)cnc43)ccc2C1=O (stereo not shown) [Example 7-9] | < 10
CN1Cc2cc(N3CCOc4cc(S(=O)(=O)C5CCCCC5)cnc43)ccc2C1=O [Example 7-10] | 10 to 100
CC(C)(C)OC(=O)c1ccc(N2CCOc3cc(C(=O)N4CCC[C@@H](F)C4)cnc32)cc1 [Example 8-7] | 10 to 100
CC(C)(C)OC(=O)c1ccc(N2CCOc3cc(C(=O)N4CCC[C@H](F)C4)cnc32)cc1 [Example 8-8] | > 100
O=C(c1ccc2c(c1)OCCN2C1CCCCC1)N1CCCCC1 [Example 8-14] | 10 to 100
CCn1nc2cc(N3CCOc4cc(C(=O)N5CCCCC5)cnc43)ccn2c1=O [Example 8-15] | < 10
CCn1nc2cc(N3CCOc4cc(C(=O)N5CCC5)cnc43)ccn2c1=O [Example 8-16] | < 10
CCn1nc2cc(N3CCOc4cc(C(=O)N5CCCCCCC5)cnc43)ccn2c1=O [Example 8-17] | < 10
CCN1Cc2cc(N3CCOc4cc(C(=O)N5CCCCC5)cnc43)ccc2C1=O [Example 8-18] | < 10
CCn1nc2cc(N3CCOc4cc(C(=O)N5CCCC5)cnc43)ccn2c1=O [Example 8-19] | < 10
Cn1nc2cc(N3CCOc4cc(C(=O)N5CCCC5)cnc43)ccn2c1=O [Example 8-20] | < 10
C[C@@H]1CCCCN1C(=O)c1cnc2c(c1)OCCN2c1ccn2c(=O)n(C)nc2c1 [Example 8-21] | < 10

Compound | IC50 [nM]
C[C@@H]1CCCN1C(=O)c1cnc2c(c1)OCCN2c1ccn2c(=O)n(C)nc2c1 [Example 8-22] | 10 to 100
Cn1nc2cc(N3CCOc4cc(C(=O)N5CCC[C@@H](F)C5)cnc43)ccn2c1=O [Example 8-23] | < 10
Cn1nc2cc(N3CCOc4cc(C(=O)N5CCCC(F)(F)C5)cnc43)ccn2c1=O [Example 8-24] | < 10
Cn1nc2cc(N3CCOc4cc(C(=O)N5CCC(F)(F)C5)cnc43)ccn2c1=O [Example 8-25] | < 10
Cn1nc2cc(N3CCOc4cc(C(=O)N5CCC(F)(F)CC5)cnc43)ccn2c1=O [Example 8-26] | < 10
Cn1nc2cc(N3CCOc4cc(C(=O)N5CCC[C@H](F)C5)cnc43)ccn2c1=O [Example 8-27] | < 10
C[C@H]1CCCCN1C(=O)c1cnc2c(c1)OCCN2c1ccn2c(=O)n(C)nc2c1 [Example 8-28] | < 10
C[C@H]1CCCN1C(=O)c1cnc2c(c1)OCCN2c1ccn2c(=O)n(C)nc2c1 [Example 8-29] | < 10
Cn1nc2cc(N3CCOc4cc(C(=O)N5CC(F)(F)C5)cnc43)ccn2c1=O [Example 8-30] | < 10
C[C@@H]1CCCN(C(=O)c2cnc3c(c2)OCCN3c2ccn3c(=O)n(C)nc3c2)C1 [Example 8-31] | < 10
C[C@@H]1CCN(C(=O)c2cnc3c(c2)OCCN3c2ccn3c(=O)n(C)nc3c2)C1 [Example 8-32] | < 10
Cn1nc2cc(N3CCOc4cc(C(=O)N5CCC[C@@H](O)C5)cnc43)ccn2c1=O [Example 8-33] | < 10
C[C@H]1CCCN(C(=O)c2cnc3c(c2)OCCN3c2ccn3c(=O)n(C)nc3c2)C1 [Example 8-34] | < 10
C[C@H]1CCN(C(=O)c2cnc3c(c2)OCCN3c2ccn3c(=O)n(C)nc3c2)C1 [Example 8-35] | < 10
COC(=O)C1CCCN(C(=O)c2cnc3c(c2)OCCN3c2ccn3c(=O)n(C)nc3c2)C1 (stereo not shown) [Example 8-36] | < 10
COC(=O)C1CN(C(=O)c2cnc3c(c2)OCCN3c2ccn3c(=O)n(C)nc3c2)C1 [Example 8-37] | < 10
Cn1nc2cc(N3CCOc4cc(C(=O)N5CCC[C@H](O)C5)cnc43)ccn2c1=O [Example 8-38] | < 10
Cn1nc2cc(N3CCOc4cc(C(=O)N5C[C@@H]6CC[C@@H](C6)C5)cnc43)ccn2c1=O [Example 8-39] | < 10
Cn1nc2cc(N3CCOc4cc(C(=O)N5C[C@H]6C[C@@H](C5)C6)cnc43)ccn2c1=O [Example 8-40] | < 10
C[C@@H]1C[C@H](C)CN(C(=O)c2cnc3c(c2)OCCN3c2ccn3c(=O)n(C)nc3c2)C1 [Example 8-41] | < 10
Cn1nc2cc(N3CCOc4cc(C(=O)N5CCCC6(CC6)C5)cnc43)ccn2c1=O [Example 8-42] | < 10
CCC1CCCN(C(=O)c2cnc3c(c2)OCCN3c2ccn3c(=O)n(C)nc3c2)C1 (stereo not shown) [Example 8-43] | < 10
CC1CCN(C(=O)c2cnc3c(c2)OCCN3c2ccn3c(=O)n(C)nc3c2)CC1 [Example 8-44] | < 10
Cn1nc2cc(N3CCOc4cc(C(=O)N5CCC6(CC5)CC6)cnc43)ccn2c1=O [Example 8-45] | < 10

Second part, the compound after the results:

IC50 [nM] | Compound
< 10 | Cn1nc2cc(N3CCOc4cc(C(=O)N5CCC6CC6C5)cnc43)ccn2c1=O (stereo not shown) [Example 8-46]
< 10 | CC1CN(C(=O)c2cnc3c(c2)OCCN3c2ccn3c(=O)n(C)nc3c2)CCC1(F)F (stereo not shown) [Example 8-47]
< 10 | Cn1nc2cc(N3CCOc4cc(C(=O)N5CCCC(C)(F)C5)cnc43)ccn2c1=O (stereo not shown) [Example 8-48]
< 10 | Cn1nc2cc(N3CCOc4cc(C(=O)N5CCOC6(CC6)C5)cnc43)ccn2c1=O [Example 8-49]
< 10 | Cn1nc2cc(N3CCOc4cc(C(=O)N5CC(C)(F)C5)cnc43)ccn2c1=O [Example 8-50]
10 to 100 | Cn1nc2cc(N3CCOc4cc(C(=O)N5CCCC6(CCO6)C5)cnc43)ccn2c1=O (stereo not shown) [Example 8-51]
10 to 100 | Cn1nc2cc(N3CCOc4cc(C(=O)N5CCCC6(COC6)C5)cnc43)ccn2c1=O [Example 8-52]
< 10 | Cn1nc2cc(N3CCOc4nc(C(=O)N5CCCCC5)ccc43)ccn2c1=O [Example 8-53]
< 10 | Cn1nc2cc(N3CCOc4cc(C(=O)N5CCCC6CC65)cnc43)ccn2c1=O (stereo not shown) [Example 8-54]
< 10 | CCN(C)C(=O)c1cnc2c(c1)OCCN2c1ccn2c(=O)n(C)nc2c1 [Example 8-55]
< 10 | Cn1nc2cc(N3CCOc4cc(C(=O)N5[C@@H]6CCC[C@H]5CC6)cnc43)ccn2c1=O [Example 8-56]
< 10 | Cn1nc2cc(N3CCCOc4cc(C(=O)N5CCC5)cnc43)ccn2c1=O [Example 8-57]
< 10 | Cn1nc2cc(N3CCCOc4cc(C(=O)N5CCCC5)cnc43)ccn2c1=O [Example 8-58]
< 10 | Cn1nc2cc(N3CCCOc4cc(C(=O)N5CCCCCC5)cnc43)ccn2c1=O [Example 8-59]
< 10 | C[C@@H]1CCCN(C(=O)c2cnc3c(c2)OCCCN3c2ccn3c(=O)n(C)nc3c2)C1 [Example 8-60]
< 10 | C[C@H]1CCCN(C(=O)c2cnc3c(c2)OCCCN3c2ccn3c(=O)n(C)nc3c2)C1 [Example 8-61]
< 10 | Cn1nc2cc(N3CCCOc4cc(C(=O)N5CCC[C@@H](F)C5)cnc43)ccn2c1=O [Example 8-62]
< 10 | Cn1nc2cc(N3CCCOc4cc(C(=O)N5CCC[C@H](F)C5)cnc43)ccn2c1=O [Example 8-63]
< 10 | Cn1nc2cc(N3CCCOc4cc(C(=O)N5CCC(F)(F)CC5)cnc43)ccn2c1=O [Example 8-64]
< 10 | Cn1nc2cc(N3CCOc4cc(C(=O)N5CCC[C@H](CF)C5)cnc43)ccn2c1=O [Example 8-65]
< 10 | Cn1nc2cc(N3CCOc4cc(C(=O)N5CCC[C@@H](CF)C5)cnc43)ccn2c1=O [Example 8-66]
< 10 | Cn1nc2cc(N3CCOc4cc(C(=O)N5CCCC6(CCC6)C5)cnc43)ccn2c1=O [Example 8-67]
< 10 | CCN1Cc2cc(N3CCCc4cc(C(=O)N5CCC5)cnc43)ccc2C1=O [Example 8-68]
< 10 | CCN1Cc2cc(N3CCCc4cc(C(=O)N5CCCC5)cnc43)ccc2C1=O [Example 8-69]
< 10 | CCN1Cc2cc(N3CCCc4cc(C(=O)N5CCCCCC5)cnc43)ccc2C1=O [Example 8-70]
< 10 | CCN1Cc2cc(N3CCCc4cc(C(=O)N5CCCCCCC5)cnc43)ccc2C1=O [Example 8-71]
< 10 | CCN1Cc2cc(N3CCCc4cc(C(=O)N5CCOCC5)cnc43)ccc2C1=O [Example 8-72]
< 10 | CCN1Cc2cc(N3CCCc4cc(C(=O)N5CCN(C)CC5)cnc43)ccc2C1=O [Example 8-73]
